The source made the active and inactive calls. No cut-off for these calls is given here.
Target: T1, UDP-3-O-acyl-N-acetylglucosamine deacetylase (Pseudomonas aeruginosa (strain ATCC 15692 / PAO1 / 1C / PRS 101 / LMG12228)) (UniProt P47205)
T1 sequence (whole entry): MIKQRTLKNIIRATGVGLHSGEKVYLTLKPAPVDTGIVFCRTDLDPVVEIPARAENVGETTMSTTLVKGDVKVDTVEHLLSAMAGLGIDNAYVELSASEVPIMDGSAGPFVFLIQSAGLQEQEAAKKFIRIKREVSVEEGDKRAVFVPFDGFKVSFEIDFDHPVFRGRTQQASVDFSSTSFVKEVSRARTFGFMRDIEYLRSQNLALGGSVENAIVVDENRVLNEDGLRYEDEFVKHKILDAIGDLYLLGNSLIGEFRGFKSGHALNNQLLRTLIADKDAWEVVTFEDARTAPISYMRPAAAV
Assay: Inhibition at Pseudomonas aeruginosa deacetylase LpxC receptor

- Activity: Active
SMILES: O=C(NO)C1COC(c2cccc(C(F)(F)F)c2)=N1 (stereo unspecified)
